Here are results for 1 compound from patent US20250360218A1, “MITOCHONDRIA-TARGETING CANCER THERAPEUTIC COMPOSITION” (Seoul National University R&DB Foundation, priority 2022, published 2025).

This assay deals with TSPO (Homo sapiens, UniProt P30536). Put plainly: protein binding capacity for TSPO. As to the method:
In order to find the conjugation position of IR780, a photosensitizer according to Example of the present invention, and an imidazopyridine derivative, a molecular docking simulation was performed. […] Accordingly, the compound of the present invention, a compound targeting mitochondria in cancer cells, was designed and synthesized so that IR780 was introduced by selecting a position (position Y in FIG. 1B) where steric hindrance is not expected, and then its protein binding capacity was measured.

TSPO, sequence (P30536 whole entry): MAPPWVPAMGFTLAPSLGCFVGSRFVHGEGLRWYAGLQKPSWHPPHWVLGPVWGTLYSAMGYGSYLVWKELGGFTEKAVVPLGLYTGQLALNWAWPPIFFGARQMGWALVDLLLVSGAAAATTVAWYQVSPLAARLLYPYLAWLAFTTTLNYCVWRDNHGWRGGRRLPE

Usually Ki stands for a dissociation constant, usually derived from enzyme kinetics or from competition with a known ligand. Low readings indicate higher affinity, high ones lower affinity. For the compound `CCCN(CCC)C(=O)Cc1c(-c2ccc(Cl)cc2)nc2c(NC(=S)Nc3ccc(SC4=C(/C=C/C5=[N+](CCC)c6ccccc6C5(C)C)CCC/C4=C\C=C4\N(CCC)c5ccccc5C4(C)C)cc3)cccn12`, the Ki was 201 nM.
